Measurements reported in US10376520B2, “Methods for the treatment of cardiovascular disorders” (Galapagos NV, priority 2015, dated 2019).

Tested on: RA patients
Assay: LDL determination, Study 1 (RA patients, add-on to MTX)
Assay type: in vivo, human
Settings: for [LDL] Mean CFB / [LDL] Median CFB: Study 1 12 weeks results
Experimental: Double-blind, placebo-controlled add on study in subjects with moderately to severely active RA who have an inadequate response to methotrexate (MTX) (oral or parenteral).
595 subjects randomized to one of 6 dose regimens of Compound 1 (dosed as a [Compound 1:HCl:3H2O]) (3 dose levels administered either once or twice daily) or placebo on top of each subject's stable dose of MTX.
Compound 1 (dosed as a [Compound 1:HCl:3H2O]) is dosed for twelve weeks once daily (q.d.) (50 mg, 100 mg or 200 mg) or twice daily (b.i.d.) (25 mg, 50 mg or 100 mg); or placebo.
At Week 12, the subjects on placebo who have not achieved 20% improvement in swollen joint count (SJC66) and tender joint count (TJC68) are re-randomized automatically to receive Compound 1 (dosed as a [Compound 1:HCl:3H2O]) either at 100 mg q.d. or 50 mg b.i.d. doses in a blinded fashion; subjects on 50 mg q.d. who have not achieved 20% improvement in SJC66 and TJC68 will be assigned to 100 mg q.d. and subjects on 25 mg b.i.d. that have not achieved a 20% improvement in SJC66 and TJC68 will be assigned to 50 mg b.i.d. Subjects who switch treatment at week 12 are handled as if they discontinued at week 12 for the purpose of statistical analysis, whereas subjects in the other groups will maintain their randomized treatment until Week 24.
The determination of [LDL]-cholesterol is made using an automated method taking advantage of the selective micellary solubilization of [LDL]-cholesterol by a nonionic detergent and the interaction of a sugar compound and lipoproteins (VLDL and chylomicrons).
When a detergent is included in the enzymatic method for cholesterol determination (cholesterol esterase, cholesterol oxidase coupling reaction), the relative reactivities of cholesterol in the lipoprotein fractions increase in this order: [HDL]<chylomicrons <VLDL <[LDL]. In the presence of Mg^2+, a sugar compound markedly reduces the enzymatic reaction of the cholesterol measurement in VLDL and chylomicrons. The combination of a sugar compound with detergent enables the selective determination of [LDL]-cholesterol in serum. (Friedewald et al., 1972; Rifai et al., 1992)
Homogeneous enzymatic colorimetric assay.
In the presence of peroxidase, the hydrogen peroxide generated reacts with 4-aminoantipyrine and Sodium N-(2-hydroxy-3-sulfopropyl)-3,5-dimethoxyaniline (HSDA) to form a purple-blue dye.
The color intensity of this dye is directly proportional to the cholesterol concentration and is measured photometrically.
Human serum and plasma samples [LDL] determination was done on a Roche/Hitachi Cobas c 701/702 system which automatically calculate the analyte concentration of each sample. Samples containing precipitates are centrifuged before performing the assay.

O=C(Nc1nc2cccc(-c3ccc(CN4CCS(=O)(=O)CC4)cc3)n2n1)C1CC1 [Compound 1, cyclopropanecarboxylic acid {5-[4-(1,1-dioxo-thiomorpholin-4-ylmethyl)-phenyl]-[1,2,4]triazolo[1,5-a]pyridin-2yl}-amide]
[LDL] Mean percentage CFB - 24 weeks results (25 mg b.i.d continued over 24 weeks, week 1): 2.79%
[LDL] Mean percentage CFB - 24 weeks results (25 mg b.i.d continued over 24 weeks, week 2): 3.88%
[LDL] Mean percentage CFB - 24 weeks results (25 mg b.i.d continued over 24 weeks, week 4): 4.15%
[LDL] Mean percentage CFB - 24 weeks results (25 mg b.i.d continued over 24 weeks, week 8): 3.83%
[LDL] Mean percentage CFB - 24 weeks results (25 mg b.i.d continued over 24 weeks, week 12): 7.21%
[LDL] Mean percentage CFB - 24 weeks results (25 mg b.i.d continued over 24 weeks, week 16): 6.54%
[LDL] Mean percentage CFB - 24 weeks results (25 mg b.i.d continued over 24 weeks, week 20): 7.42%
[LDL] Mean percentage CFB - 24 weeks results (25 mg b.i.d continued over 24 weeks, week 24): 8.14%
[LDL] Mean percentage CFB - 24 weeks results (50 mg b.i.d. continued over 24 weeks, week 1): 4.19%
[LDL] Mean percentage CFB - 24 weeks results (50 mg b.i.d. continued over 24 weeks, week 2): 3.43%
[LDL] Mean percentage CFB - 24 weeks results (50 mg b.i.d. continued over 24 weeks, week 4): 7.11%
[LDL] Mean percentage CFB - 24 weeks results (50 mg b.i.d. continued over 24 weeks, week 8): 4.75%
[LDL] Mean percentage CFB - 24 weeks results (50 mg b.i.d. continued over 24 weeks, week 12): 2.33%
[LDL] Mean percentage CFB - 24 weeks results (50 mg b.i.d. continued over 24 weeks, week 16): 5.78%
[LDL] Mean percentage CFB - 24 weeks results (50 mg b.i.d. continued over 24 weeks, week 20): 7.08%
[LDL] Mean percentage CFB - 24 weeks results (50 mg b.i.d. continued over 24 weeks, week 24): 8.29%
[LDL] Mean percentage CFB - 12 weeks results (50 mg q.d. (N = 82), week 1): 0%
[LDL] Mean percentage CFB - 12 weeks results (50 mg q.d. (N = 82), week 2): 1%
[LDL] Mean percentage CFB - 12 weeks results (50 mg q.d. (N = 82), week 4): 0%
[LDL] Mean percentage CFB - 12 weeks results (50 mg q.d. (N = 82), week 8): 3%
[LDL] Mean percentage CFB - 12 weeks results (50 mg q.d. (N = 82), week 12): 6%
[LDL] Mean percentage CFB - 24 weeks results (50 mg q.d. continued over 24 weeks, week 1): 0.26%
[LDL] Mean percentage CFB - 24 weeks results (50 mg q.d. continued over 24 weeks, week 2): −0.24%
[LDL] Mean percentage CFB - 24 weeks results (50 mg q.d. continued over 24 weeks, week 4): 0.35%
[LDL] Mean percentage CFB - 24 weeks results (50 mg q.d. continued over 24 weeks, week 8): 3.58%
[LDL] Mean percentage CFB - 24 weeks results (50 mg q.d. continued over 24 weeks, week 12): 6.67%
[LDL] Mean percentage CFB - 24 weeks results (50 mg q.d. continued over 24 weeks, week 16): 6.70%
[LDL] Mean percentage CFB - 24 weeks results (50 mg q.d. continued over 24 weeks, week 20): 6.29%
[LDL] Mean percentage CFB - 24 weeks results (50 mg q.d. continued over 24 weeks, week 24): 6.05%
[LDL] Mean percentage CFB - 24 weeks results (100 mg b.i.d. continued over 24 weeks, week 1): 8.14%
[LDL] Mean percentage CFB - 24 weeks results (100 mg b.i.d. continued over 24 weeks, week 4): 7.69%
[LDL] Mean percentage CFB - 24 weeks results (100 mg b.i.d. continued over 24 weeks, week 8): 13.14%
[LDL] Mean percentage CFB - 24 weeks results (100 mg b.i.d. continued over 24 weeks, week 12): 11.86%
[LDL] Mean percentage CFB - 24 weeks results (100 mg b.i.d. continued over 24 weeks, week 16): 9.44%
[LDL] Mean percentage CFB - 24 weeks results (100 mg b.i.d. continued over 24 weeks, week 20): 7.71%
[LDL] Mean percentage CFB - 24 weeks results (100 mg b.i.d. continued over 24 weeks, week 24): 12.88%
[LDL] Mean percentage CFB - 12 weeks results (100 mg q.d. (N = 85), week 1): 5%
[LDL] Mean percentage CFB - 12 weeks results (100 mg q.d. (N = 85), week 2): 2%
[LDL] Mean percentage CFB - 12 weeks results (100 mg q.d. (N = 85), week 4): 5%
[LDL] Mean percentage CFB - 12 weeks results (100 mg q.d. (N = 85), week 8): 4%
[LDL] Mean percentage CFB - 12 weeks results (100 mg q.d. (N = 85), week 12): 6%
[LDL] Mean percentage CFB - 24 weeks results (100 mg q.d. continued over 24 weeks, week 1): 5.08%
[LDL] Mean percentage CFB - 24 weeks results (100 mg q.d. continued over 24 weeks, week 2): 1.97%
[LDL] Mean percentage CFB - 24 weeks results (100 mg q.d. continued over 24 weeks, week 4): 5.31%
[LDL] Mean percentage CFB - 24 weeks results (100 mg q.d. continued over 24 weeks, week 8): 3.51%
[LDL] Mean percentage CFB - 24 weeks results (100 mg q.d. continued over 24 weeks, week 12): 5.69%
[LDL] Mean percentage CFB - 24 weeks results (100 mg q.d. continued over 24 weeks, week 16): 0.89%
[LDL] Mean percentage CFB - 24 weeks results (100 mg q.d. continued over 24 weeks, week 20): 1.19%
[LDL] Mean percentage CFB - 24 weeks results (100 mg q.d. continued over 24 weeks, week 24): 2.66%
[LDL] Mean percentage CFB - 12 weeks results (200 mg q.d. (N = 86), week 1): 6%
[LDL] Mean percentage CFB - 12 weeks results (200 mg q.d. (N = 86), week 2): 6%
[LDL] Mean percentage CFB - 12 weeks results (200 mg q.d. (N = 86), week 4): 6%
[LDL] Mean percentage CFB - 12 weeks results (200 mg q.d. (N = 86), week 8): 8%
[LDL] Mean percentage CFB - 12 weeks results (200 mg q.d. (N = 86), week 12): 8%
[LDL] Mean percentage CFB - 24 weeks results (200 mg q.d. continued over 24 weeks, week 1): 6.34%
[LDL] Mean percentage CFB - 24 weeks results (200 mg q.d. continued over 24 weeks, week 2): 5.81%
[LDL] Mean percentage CFB - 24 weeks results (200 mg q.d. continued over 24 weeks, week 4): 5.97%
[LDL] Mean percentage CFB - 24 weeks results (200 mg q.d. continued over 24 weeks, week 8): 7.93%
[LDL] Mean percentage CFB - 24 weeks results (200 mg q.d. continued over 24 weeks, week 12): 7.96%
[LDL] Mean percentage CFB - 24 weeks results (200 mg q.d. continued over 24 weeks, week 16): 7.99%
[LDL] Mean percentage CFB - 24 weeks results (200 mg q.d. continued over 24 weeks, week 20): 8.85%
[LDL] Mean percentage CFB - 24 weeks results (200 mg q.d. continued over 24 weeks, week 24): 7.78%
[LDL] Mean percentage CFB - 12 weeks results (2 x 25 mg b.i.d. (N = 86), week 1): 3%
[LDL] Mean percentage CFB - 12 weeks results (2 x 25 mg b.i.d. (N = 86), week 2): 4%
[LDL] Mean percentage CFB - 12 weeks results (2 x 25 mg b.i.d. (N = 86), week 4): 3%
[LDL] Mean percentage CFB - 12 weeks results (2 x 25 mg b.i.d. (N = 86), week 8): 2%
[LDL] Mean percentage CFB - 12 weeks results (2 x 25 mg b.i.d. (N = 86), week 12): 6%
[LDL] Mean percentage CFB - 12 weeks results (2 x 50 mg b.i.d. (N = 85), week 1): 4%
[LDL] Mean percentage CFB - 12 weeks results (2 x 50 mg b.i.d. (N = 85), week 2): 3%
[LDL] Mean percentage CFB - 12 weeks results (2 x 50 mg b.i.d. (N = 85), week 4): 7%
[LDL] Mean percentage CFB - 12 weeks results (2 x 50 mg b.i.d. (N = 85), week 8): 5%
[LDL] Mean percentage CFB - 12 weeks results (2 x 50 mg b.i.d. (N = 85), week 12): 2%
[LDL] Mean percentage CFB - 12 weeks results (2 x 100 mg b.i.d. (N = 84), week 1): 8%
[LDL] Mean percentage CFB - 12 weeks results (2 x 100 mg b.i.d. (N = 84), week 2): 6%
[LDL] Mean percentage CFB - 12 weeks results (2 x 100 mg b.i.d. (N = 84), week 4): 8%
[LDL] Mean percentage CFB - 12 weeks results (2 x 100 mg b.i.d. (N = 84), week 8): 13%
[LDL] Mean percentage CFB - 12 weeks results (2 x 100 mg b.i.d. (N = 84), week 12): 12%
[LDL] Mean CFB (50 mg q.d., week 1): -0.01 mmol/L
[LDL] Median CFB (50 mg q.d., week 1): -0.01 mmol/L
[LDL] Mean CFB (50 mg q.d., week 2): 0.02 mmol/L
[LDL] Median CFB (50 mg q.d., week 2): 0.02 mmol/L
[LDL] Mean CFB (50 mg q.d., week 4): 0.01 mmol/L
[LDL] Median CFB (50 mg q.d., week 4): -0.01 mmol/L
[LDL] Mean CFB (50 mg q.d., week 8): 0.06 mmol/L
[LDL] Median CFB (50 mg q.d., week 8): 0.07 mmol/L
[LDL] Mean CFB (50 mg q.d., week 12): 0.14 mmol/L
[LDL] Median CFB (50 mg q.d., week 12): 0.13 mmol/L
[LDL] Mean CFB (100 mg q.d., week 1): 0.11 mmol/L
[LDL] Median CFB (100 mg q.d., week 1): 0.1 mmol/L
[LDL] Mean CFB (100 mg q.d., week 2): 0.01 mmol/L
[LDL] Median CFB (100 mg q.d., week 2): 0.02 mmol/L
[LDL] Mean CFB (100 mg q.d., week 4): 0.13 mmol/L
[LDL] Median CFB (100 mg q.d., week 4): 0.13 mmol/L
[LDL] Mean CFB (100 mg q.d., week 8): 0.03 mmol/L
[LDL] Median CFB (100 mg q.d., week 8): 0.05 mmol/L
[LDL] Mean CFB (100 mg q.d., week 12): 0.13 mmol/L
[LDL] Median CFB (100 mg q.d., week 12): 0.13 mmol/L
[LDL] Mean CFB (200 mg q.d., week 1): 0.16 mmol/L
[LDL] Median CFB (200 mg q.d., week 1): 0.16 mmol/L
